Read-outs that look alike come from different tables or passages of the source. Marks after values point to notes of the source that are not given here.

Data set [1] has as its system rats with testis removed. The data set can be described thus: Penile erection caused by stimulating electric current in rats with testes removed (Example 7). The class given is in vivo, wistar rats. To be noted: for penile swelling time (in words) / latent period of the penile erection (in words): compared with control; for latent period of the penile erection (in words): P<0.001; for Latent period / Swelling time: stimulation 35 min after administration. From the text:
Methods: Forty healthy adult male wistar rats were used in the study, with the body weight ranging from 230 g to 250 g. The rats were anesthetized with sodium pentobarbital, and their testes were squeezed into the scrotum. After sterilization, the scrotum was dissected with an operation knife. The testes and epididymis were taken out respectively and then ligated. The wound were sutured and 100,000 unit of penicillin was administrated to each rat for three consecutive days. After breeding for one week, the rats were used for the tests. The animals may be used repeatedly and the interval between any two of the tests was one week. […] Sildenafil at the dose of 50 mg/kg was used as the positive control. The control group is (1% sodium carboxymethyl cellulose). In 35 min after the administration, the penis of the rats was stimulated with SEN-3201 stimulator (NIHON KOHDEN, Japan), with the following parameters: the stimulating voltage of 10V, the time interval (T1) of 250 msec, the deferment time (T2) of 10 msec, the duration (T3) of 500 μsec, and the stimulation rank (n) of 25. At the same time, the latent period (sec) of the penile erection and the penile swelling time (min) were recorded with a three-channel stop-watch.

Data set [2] relates to mice with testis removed. The data set can be described thus: Sexual function (back climbing) of testis-removed mice (Example 10). The class given is in vivo, KM mice. To be noted: for Incidence: back climbing within 2 hours after administration; for Times of back climbing / Number of the animals who performed back climbing: within 2 hours after administration; for Number of the animals who performed back climbing: 10 male mice. From the text:
Methods: Forty healthy KM male mice with the body weight ranging from 28-32 g and forty healthy KM female mice with body weight ranging from 24-28 g were used. Each male mouse was anesthetized with sodium pentobarbital, and the testes were squeezed into the scrotum. After sterilization, the scrotum was dissected with an operating knife. The testes and epididymis were respectively taken out, and then ligated. The wound were sutured and each of the mice was administrated with 100,000 units of penicillin for three consecutive days. After being bred for one week, the mice were used for the tests. The animals may be employed repeatedly and the interval between any two tests was 72 hours. To the mice, the following compounds were orally administered: compound (1), compound (2), compound (3), and compound (4), each at the dose of 80 mg/kg and 40 mg/kg, respectively. The positive control agent was Sildenafil, at the dose of 80 mg/kg. The control group was given with 1% of sodium carboxymethyl cellulose. At 30 min after the administration, the male mice who had taken the above agents were put into the cages of female mice, with the male-to-female rate of 1:1. There were three males and three females in each cage. The times of back climbing on the female mice performed by the male mice, and the percentage of occurrence were observed within 2 hours after the administration.

The test system of data set [3] is anesthetized dogs. The data set can be described thus: Blood pressure, heart rate and respiration of anesthetized dogs (Example 11). The data set is classed as in vivo. To be noted: oral 40 mg/kg; in 3 hours after administration. The procedure:
Methods: eight healthy male dogs with the body weight ranging from 12-15 kg were used. The dogs were anesthetized with 30 mg/kg of sodium pentobarbital. The femoral artery was dissected and inserted with a blood pressure transducer to record the blood pressure. The limbs were pierced with electrodes for recording the electrocardiogram. The respiration belt was wrapped around their chest and the respiration rate was recorded. The apparatus used was RM-6000 Polygraph system (NIHON KOHDEN, Japan). The changes in the arterial blood pressure, the heart rate, and the respiration were observed after the test compound was introduced into the stomach of the anesthetized dogs via 14# catheter.

The nature of data set [4]: Preliminary acute toxicity, Bliss method (Example 13). Conditions: rat, in vivo, oral and intragastric administration, rats. The procedure: Experimental methods: the toxicity test was conducted by oral and intragastric administration of the pyrazolopyrimidinethione derivatives of the invention using the Bliss method.
For data set [5] the following is noted: prior-art filings, background section; cited from earlier work.

What is called LD50 is the dose at which mortality reaches 50%. As to `CCCc1nn(CC)c2c(=S)[nH]c(-c3cc(S(=O)(=O)N4C[C@@H](C)N[C@@H](C)C4)ccc3OCC)nc12` [Compound (1), 5-[2-ethoxy-5-(cis-3,5-dimethylpiperazin-1-sulfonyl)phenyl]-1-ethyl-3-n-propyl-1,6-dihydro-7H-pyrazolo[4,3-d]pyrimidin-7-thione], in data set [1], the “penile swelling time (in words)” value is “lengthened” and the “latent period of the penile erection (in words)” value (from here on “latent period … (in words)”) is “evidently shortened”. The “penile swelling time compared with positive control sildenafil (in words)” value in data set [1] (compared with sildenafil 50 mg/kg) is “more evident”. In data set [1] (oral 20 mg/kg), this compound gave a Latent period of 28.8 ± 1.7 s and a Swelling time of 1305.1 ± 588.8 s. Moreover, in data set [1] (oral 40 mg/kg), the Latent period was 29.5 ± 4.2 s and the Swelling time stood at 2943.1 ± 552.9 s. Further, in data set [2] (oral 40 mg/kg), the Incidence was 30%, the “Times of back climbing” value is 4 and the “Number of the animals who performed back climbing” value (“Number” for short) was 3. Further, in data set [2] (oral 80 mg/kg), the Incidence was found to be 40%, the “Times of back climbing” value was 7* and the “Number” value came out at 4. For the same compound, the “arterial blood pressure (systolic and diastolic), heart rate and respiration (frequency and depth), in words” value (“arterial blood pressure” for short) in data set [3] is given as “did not experience an evident change”. The same compound returned an LD50 in data set [4] of over 3000 mg/kg.

For `CCCc1nn(C)c2c(=S)[nH]c(-c3cc(S(=O)(=O)N4C[C@@H](C)N[C@@H](C)C4)ccc3OC)nc12` [Compound (3), 5-[2-methoxy-5-(cis-3,5-dimethylpiperazin-1-sulfonyl)phenyl]-1-methyl-3-n-propyl-1,6-dihydro-7H-pyrazolo[4,3-d]pyrimidin-7-thione], in data set [1], the “penile swelling time (in words)” value is recorded as “lengthened” and the “latent period … (in words)” value was “evidently shortened”. For the same compound, in data set [1] (oral 20 mg/kg), the Latent period worked out at 32.8 ± 4.4 s and the Swelling time came to 551.8 ± 350.8 s. In data set [1] (oral 40 mg/kg), the Latent period worked out at 30.4 ± 2.6 s and the Swelling time amounted to 809.6 ± 247.5 s. In data set [2] (oral 40 mg/kg), the Incidence came out at 20%, the “Times of back climbing” value is reported as 2 and the “Number” value was determined as 2. Moreover, in data set [2] (oral 80 mg/kg), the Incidence was found to be 30%, the “Times of back climbing” value is reported as 4 and the “Number” value was determined as 3. Moreover, the “arterial blood pressure” value in data set [3] was “did not experience an evident change”. The LD50 in data set [4] came to 2500 mg/kg.

Turning to `CCCc1nn(C)c2c(=O)[nH]c(-c3cc(S(=O)(=O)N4C[C@@H](C)N[C@@H](C)C4)ccc3OCC)nc12` [5-[2-ethoxy-5-(cis-3,5-dimethylpiperazin-1-sulfonyl)phenyl]-1-methyl-3-n-propyl-1,6-dihydro-7H-pyrazolo[4,3d]pyrimidin-7-one], the LD50 in data set [5] was 772.5 to 1052.1 mg/kg.

On to `CCCOc1ccc(S(=O)(=O)N2C[C@@H](C)N[C@@H](C)C2)cc1-c1nc2c(CCC)nn(C)c2c(=S)[nH]1` [Compound (4), 5-[2-propoxy-5-(cis-3,5-dimethylpiperazin-1-sulfonyl)phenyl]-1-methyl-3-n-propyl-1,6-dihydro-7H-pyrazolo[4,3-d]pyrimidin-7-thione], for which, in data set [1], the “penile swelling time (in words)” value is reported as “lengthened” and the “latent period … (in words)” value is “evidently shortened”. Besides, in data set [2] (oral 40 mg/kg), the Incidence worked out at 20%, the “Times of back climbing” value is given as 3 and the “Number” value amounted to 2. Moreover, in data set [2] (oral 80 mg/kg), the Incidence stood at 30%, the “Times of back climbing” value is reported as 5 and the “Number” value is listed as 3. The “arterial blood pressure” value in data set [3] was “did not experience an evident change”. The compound also registered an LD50 in data set [4] of over 3000 mg/kg.

The values above are taken from patent US20070219220A1, “Pyrazolopyrimidinethione Derivatives, Salts and Solvates Thereof, Preparation Methods and Use Thereof” (priority 2003, published 2007).
